# In ChEMBL document CHEMBL5523723, “G Protein-Coupled Estrogen Receptor-Mediated Anti-Inflammatory and Mucosal Healing Activity of a Trimethylpyridinol Analogue in Inflammatory Bowel Disease” (J Med Chem, 2024):
# Legend:
# [1] = Acute toxicity in ICR mouse assessed as abnormal behavior at 30 to 300 mg/kg, po measured every other day for 14 days; assay type: organism-based; conditions: in vivo, 336 h, dose 30-300 mg/kg, time 14 day
# CYP2C19 = CYP2C19 (Homo sapiens, UniProt P33261); assay: Inhibition of CYP2C19 in human liver microsomes assessed as remaining activity at 10 uM using 5-mephenytoin as substrate preincubated for 5 mins followed by NADPH generating system addition for 15 mins by LC-MS/MS method relative to control; assay type: ADME, Microsome; conditions: probe 5-mephenytoin, time 20 min, read-out: Activity
# hERG = hERG (Homo sapiens, UniProt Q12809); assay: Inhibition of hERG expressed in HEK cells assessed as remaining activity at 10 uM by automated patch clamp method relative to control; assay type: toxicity, cell-based; conditions: HEK cells expressing hERG, read-out: Activity
# [2] = Acute toxicity in ICR mouse assessed as change in food intake at 30 to 300 mg/kg, po measured every other day for 14 days; assay type: organism-based; conditions: in vivo, 336 h, dose 30-300 mg/kg, time 14 day
# [3] = Acute toxicity in ICR mouse assessed as change in histology of heart at 30 to 300 mg/kg, po measured every other day for 14 days by H and E staining based assay; assay type: organism-based; conditions: in vivo, 336 h, dose 30-300 mg/kg, time 14 day
# [4] = Acute toxicity in ICR mouse assessed as change in histology of liver at 30 to 300 mg/kg, po measured every other day for 14 days by H and E staining based assay; assay type: organism-based; conditions: in vivo, 336 h, dose 30-300 mg/kg, time 14 day
# [5] = AUC(0 to t) in Sprague-Dawley rat at 1 mg/kg, iv by LC-MS analysis; assay type: ADME, organism-based; conditions: in vivo
# [6] = Half-life in Sprague-Dawley rat at 1 mg/kg, iv by LC-MS analysis; assay type: ADME, organism-based; conditions: in vivo
# [7] = Mean residence time in Sprague-Dawley rat at 1 mg/kg, iv by LC-MS analysis; assay type: ADME, organism-based; conditions: in vivo
# [8] = Cmax in Sprague-Dawley rat at 1 mg/kg, po by LC-MS analysis; assay type: ADME, organism-based; conditions: in vivo
# [9] = Oral bioavailability in Sprague-Dawley rat at 1 mg/kg by LC-MS analysis; assay type: ADME, organism-based; conditions: in vivo
# [10] = Cmax in Sprague-Dawley rat at 5 mg/kg, po by LC-MS analysis; assay type: ADME, organism-based; conditions: in vivo
# [11] = biological target: T1, Amine oxidase [flavin-containing] B (Homo sapiens, UniProt P27338); assay: Inhibition of MAOB (unknown origin)
# T1 sequence (P27338 whole entry): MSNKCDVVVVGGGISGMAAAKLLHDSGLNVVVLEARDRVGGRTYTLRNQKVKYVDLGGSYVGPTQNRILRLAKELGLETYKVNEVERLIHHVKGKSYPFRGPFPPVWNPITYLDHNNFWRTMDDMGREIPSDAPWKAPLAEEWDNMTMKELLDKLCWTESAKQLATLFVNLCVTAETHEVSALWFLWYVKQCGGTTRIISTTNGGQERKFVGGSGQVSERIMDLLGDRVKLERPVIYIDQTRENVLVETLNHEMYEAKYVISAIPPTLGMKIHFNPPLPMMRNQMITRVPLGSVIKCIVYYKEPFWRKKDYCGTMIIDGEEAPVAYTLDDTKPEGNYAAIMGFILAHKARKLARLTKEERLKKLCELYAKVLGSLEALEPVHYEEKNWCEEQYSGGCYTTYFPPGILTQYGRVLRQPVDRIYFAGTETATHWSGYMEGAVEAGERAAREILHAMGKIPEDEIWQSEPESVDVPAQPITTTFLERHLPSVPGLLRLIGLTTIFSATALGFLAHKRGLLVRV
# U-937 [12] = assay: Induction of apoptosis in human U-937 cells assessed as viable cells at 1 uM incubated for 24 hrs by Annexin V FITC/PI staining based flow cytometry analysis ( Rvb = 95.2 +/- 0.4%); assay type: functional; conditions: read-out: Activity
# U-937 [13] = assay: Induction of apoptosis in human U-937 cells assessed as viable cells at 10 uM incubated for 24 hrs by Annexin V FITC/PI staining based flow cytometry analysis ( Rvb = 95.2 +/- 0.4%); assay type: functional; conditions: read-out: Activity
# Chain of CYP2C19 (P33261 whole entry): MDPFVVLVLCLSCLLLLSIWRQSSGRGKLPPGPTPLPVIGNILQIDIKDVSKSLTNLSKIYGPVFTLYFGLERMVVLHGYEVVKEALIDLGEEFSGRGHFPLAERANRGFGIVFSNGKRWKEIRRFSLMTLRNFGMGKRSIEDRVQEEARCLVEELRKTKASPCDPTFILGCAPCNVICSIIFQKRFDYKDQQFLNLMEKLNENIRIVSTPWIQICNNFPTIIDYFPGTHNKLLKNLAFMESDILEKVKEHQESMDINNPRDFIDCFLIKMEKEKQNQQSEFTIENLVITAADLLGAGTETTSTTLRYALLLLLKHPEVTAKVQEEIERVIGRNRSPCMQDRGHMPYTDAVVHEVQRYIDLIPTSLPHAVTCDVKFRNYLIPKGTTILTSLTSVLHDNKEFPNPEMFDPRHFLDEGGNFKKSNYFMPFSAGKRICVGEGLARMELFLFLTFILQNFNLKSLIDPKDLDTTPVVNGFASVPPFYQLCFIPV
# Chain of hERG (Q12809 whole entry): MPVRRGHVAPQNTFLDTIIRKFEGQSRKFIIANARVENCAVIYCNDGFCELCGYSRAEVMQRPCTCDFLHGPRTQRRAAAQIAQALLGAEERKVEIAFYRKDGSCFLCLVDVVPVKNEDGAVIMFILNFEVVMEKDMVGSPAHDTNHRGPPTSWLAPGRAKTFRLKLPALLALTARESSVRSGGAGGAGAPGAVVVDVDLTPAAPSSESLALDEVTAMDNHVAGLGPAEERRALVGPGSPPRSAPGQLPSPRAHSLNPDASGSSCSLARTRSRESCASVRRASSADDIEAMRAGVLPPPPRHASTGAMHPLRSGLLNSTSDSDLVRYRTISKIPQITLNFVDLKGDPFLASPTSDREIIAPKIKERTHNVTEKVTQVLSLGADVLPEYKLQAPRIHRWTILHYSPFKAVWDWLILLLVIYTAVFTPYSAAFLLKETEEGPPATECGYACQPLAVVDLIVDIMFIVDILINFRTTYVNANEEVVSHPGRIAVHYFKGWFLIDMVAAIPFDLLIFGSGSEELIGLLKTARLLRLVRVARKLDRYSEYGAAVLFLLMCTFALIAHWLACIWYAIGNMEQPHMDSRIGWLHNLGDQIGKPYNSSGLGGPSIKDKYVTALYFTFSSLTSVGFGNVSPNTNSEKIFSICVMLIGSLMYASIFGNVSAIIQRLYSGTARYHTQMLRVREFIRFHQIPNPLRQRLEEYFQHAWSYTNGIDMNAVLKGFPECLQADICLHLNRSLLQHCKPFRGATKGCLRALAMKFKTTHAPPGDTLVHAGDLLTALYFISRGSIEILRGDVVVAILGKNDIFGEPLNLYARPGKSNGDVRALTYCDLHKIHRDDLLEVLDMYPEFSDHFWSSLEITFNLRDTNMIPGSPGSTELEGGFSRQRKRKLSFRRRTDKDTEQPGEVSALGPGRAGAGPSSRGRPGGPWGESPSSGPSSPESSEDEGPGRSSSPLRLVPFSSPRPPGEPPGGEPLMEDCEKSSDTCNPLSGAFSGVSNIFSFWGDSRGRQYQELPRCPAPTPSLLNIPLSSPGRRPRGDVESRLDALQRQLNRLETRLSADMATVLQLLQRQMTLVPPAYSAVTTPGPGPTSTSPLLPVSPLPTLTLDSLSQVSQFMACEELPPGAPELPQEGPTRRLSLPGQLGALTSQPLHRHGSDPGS
smiles,measurement,setting,value
Cc1nc(NC(=O)c2sc3cc(F)ccc3c2Cl)c(C)c(C)c1O,Activity,[1],Non-Toxic
same,"activity at 0.25 h, 10 µM",CYP2C19,98.3%
same,activity at 10 µM,hERG,91.7%
same,Activity,[2],Non-Toxic
same,Activity,[3],Non-Toxic
same,Activity,[4],Non-Toxic
same,AUCt,[5],10006.6 ng·h/mL
same,half-life,[6],2 h
same,MRT,[7],1.2 h
same,Cmax,[8],51.9 ng/mL
same,F,[9],24.5%
same,Cmax,[10],760 ng/mL
same,IC50,[11],54 nM
same,viability at 1 µM,U-937 [12],95.4%
same,viability at 10 µM,U-937 [13],95.2%
